pIC50: −log10 of the molar value. Where a SMILES comes first, the peptide text is derived from it. Bridges are numbered along the chain shown (N, C = ends). [ ]: non-standard residue; d: D form. The star is where a group is joined. hPhe(3-Cl-4-CF3) = N[C@@H](CCc1ccc(C(F)(F)F)c(Cl)c1)C(=O)O; NPrPhe(4-CF3) = CCCN[C@@H](Cc1ccc(C(F)(F)F)cc1)C(=O)O; NMeGly(cPent) = CN[C@H](C(=O)O)C1CCCC1; Pro(4,4-F2) = O=C(O)[C@@H]1CC(F)(F)CN1; NMeI = CC[C@H](C)[C@H](NC)C(=O)O; NMeD = CN[C@@H](CC(=O)O)C(=O)O; NMeL = CN[C@@H](CC(C)C)C(=O)O; Morpholide = C1CN(*)CCO1; Ac5c = NC1(C(=O)O)CCCC1; Aze = O=C(O)[C@@H]1CCN1; Sar = CNCC(=O)O
Columns and labels:
[1] = target: GDP-bound NRAS wild-type protein (Homo sapiens, UniProt P01111); assay: Binding to NRAS by surface plasmon resonance (SPR), KD and KD ratio to KRAS
How it was run: (§1)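 GDP-loaded biotinylated Avi-tag RAS proteins (E. coli-expressed) captured on a Biotin CAPture chip at ~100–300 RU; single-cycle kinetics at 30°C, 100 µL/min, 75 s injections of rising compound concentrations. HBS pH 7.4 running buffer with 1 mM DTT, 10 mM MgCl2, 10 µM GDP, 4% DMSO. KD from 1:1 binding fit.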

HRAS wild-type protein = HRAS wild-type protein (Homo sapiens, UniProt P01112); assay: Binding to HRAS by surface plasmon resonance (SPR), KD and KD ratio to KRAS
How it was run: as §1

[2] = system: human lung cancer strain NCI-H441; assay type: cell-based
How it was run: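 Readout: […] after the ATP-based reagent. Compound: serial dilutions in dimethyl sulfoxide.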

[3] = ratio of the KD value with respect to GDP-bound NRAS wild-type protein to the KD value with respect to KRAS
[4] = ratio of the KD value with respect to HRAS wild-type protein to the KD value with respect to KRAS
[5] = ratio of KD value for GDP-bound NRAS wild-type protein to KD value for KRAS (SPR)
[6] = ratio of KD value for HRAS wild-type protein to KD value for KRAS (SPR)
[7] = ratio of KD for GDP-bound NRAS wild-type protein to KD for KRAS
[8] = ratio of KD for HRAS wild-type protein to KD for KRAS

GDP-bound NRAS wild-type protein, sequence (P01111 whole entry): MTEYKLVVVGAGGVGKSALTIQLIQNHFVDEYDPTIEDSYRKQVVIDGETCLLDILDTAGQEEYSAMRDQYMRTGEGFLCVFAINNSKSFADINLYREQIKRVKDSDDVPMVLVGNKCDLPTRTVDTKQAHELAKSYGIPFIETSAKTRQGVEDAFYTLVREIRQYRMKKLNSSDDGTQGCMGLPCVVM
HRAS wild-type protein, sequence (P01112 whole entry): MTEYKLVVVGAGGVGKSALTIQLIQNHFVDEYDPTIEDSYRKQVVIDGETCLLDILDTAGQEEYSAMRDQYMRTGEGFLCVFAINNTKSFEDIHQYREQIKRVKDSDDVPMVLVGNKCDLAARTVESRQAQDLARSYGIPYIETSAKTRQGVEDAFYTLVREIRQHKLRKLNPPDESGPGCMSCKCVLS

| SMILES | NRAS /KRAS [1, 3] | HRAS /KRAS (HRAS wild-type protein; [4]) | pIC50 [2] | other results |
| --- | --- | --- | --- | --- |
| CCCN1C(=O)CN(C)C(=O)CN(C)C(=O)[C@H]([C@@H](C)CC)NC(=O)[C@H](CC(C)C)N(C)C(=O)C[C@@H](C(=O)N(C)C)N(C)C(=O)[C@H](C2CCCC2)N(C)C(=O)C2(CCCC2)NC(=O)[C@@H]2CC(F)(F)CN2C(=O)[C@H](CCc2ccc(C(F)(F)F)c(Cl)c2)NC(=O)CN(C)C(=O)[C@@H]1Cc1ccc(C(F)(F)F)cc1 [PP0413] ([NMeL]I[Sar][Sar][NPrPhe(4-CF3)][Sar][hPhe(3-Cl-4-CF3)][Pro(4,4-F2)][Ac5c][NMeGly(cPent)][NMeD]-NMe2; lactam N-11) | C (A compound having a KD ratio of 0.1 or more and less than 3 is denoted as C) | C (A compound having a KD ratio of 0.1 or more and less than 3 is denoted as C) | 8.70 | – |
| CCO[C@@H]1C[C@H]2C(=O)NC3(CC(C)(C)C3)C(=O)N(C)[C@@H](C(CC)CC)C(=O)N3CCC[C@@H]3CC(=O)N(C)[C@@H](CC3CC3)C(=O)N[C@@H]([C@@H](C)CC)C(=O)N(C)CC(=O)N(C)[C@H]3C/C=C\CCN(C3=O)[C@@H](Cc3ccc(C(F)(F)F)cc3)C(=O)N(C)CC(=O)N[C@@H](CCc3cc(F)c(C(F)(F)F)c(F)c3)C(=O)N2C1 [PP1610] | – | – | 7.06 | NRAS /KRAS [1, 5]: A (a compound having 10 or more and less than 20 is denoted as A); HRAS /KRAS (HRAS wild-type protein; [6]): A (a compound having 10 or more and less than 20 is denoted as A) |
| CCO[C@@H]1C[C@H]2C(=O)NC3(CC(F)(F)C3)C(=O)N(C)[C@@H](C3CCCC3)C(=O)N3CCC[C@@H]3CC(=O)N(C)[C@@H](CC)C(=O)N[C@@H]([C@@H](C)CC)C(=O)N(C)CC(=O)N(C)[C@H]3C/C=C\CCN(C3=O)[C@@H](Cc3ccc(C(F)(F)F)cc3)C(=O)N(C)CC(=O)N[C@@H](CCc3cc(F)c(C(F)(F)F)c(F)c3)C(=O)N2C1 [PP1609] | – | – | 7.43 | NRAS /KRAS [1, 5]: A (a compound having 10 or more and less than 20 is denoted as A); HRAS /KRAS (HRAS wild-type protein; [6]): A (a compound having 10 or more and less than 20 is denoted as A) |
| CCCN(C)C(=O)[C@@H]1CC(=O)N(C)[C@@H](C(C)C)C(=O)N[C@@H]([C@@H](C)CC)C(=O)N(C)CC(=O)N(C)[C@H]2C/C=C\CCN(C2=O)[C@@H](Cc2ccc(C(F)(F)F)cc2)C(=O)N(C)CC(=O)N[C@@H](CCc2cc(F)c(C(F)(F)F)c(F)c2)C(=O)N2C[C@@H](C)C[C@H]2C(=O)NC2(CCC2)C(=O)N(C)[C@@H](C2CCCC2)C(=O)N1C [PP2079] | A (a compound having 10 or more and less than 20 is denoted as A) | A (a compound having 10 or more and less than 20 is denoted as A) | 7.80 | – |
| CCO[C@@H]1C[C@H]2C(=O)NC3(CCC3)C(=O)N(C)[C@@H](C3CCCC3)C(=O)N(C)[C@H](C(=O)N3CCOCC3)CC(=O)N(C)C[C@@H](C)C(=O)N[C@@H]([C@@H](C)CC)C(=O)N(C)CC(=O)N(C)[C@H]3CCCCN(C3=O)[C@@H](Cc3ccc(C(F)(F)F)cc3)C(=O)N(C)CC(=O)N[C@@H](CCc3cc(F)c(C(F)(F)F)c(F)c3)C(=O)N2C1 [PP0721] | B (a compound having 3 or more and less than 10 is denoted as B) | B (a compound having 3 or more and less than 10 is denoted as B) | 5.33 | – |
| CCC[C@H]1C(=O)N[C@@H]([C@@H](C)CC)C(=O)N(C2CC2)CC(=O)N(C)[C@H]2C/C=C\CCN(C2=O)[C@@H](Cc2ccc(C(F)(F)F)cc2)C(=O)N(C)CC(=O)N[C@@H](CCc2ccc(C(F)(F)F)c(OC)c2)C(=O)N2C[C@H](OCC)C[C@H]2C(=O)N(C)C2(CCC2)C(=O)N(C)[C@@H](C2CCCC2)C(=O)N(C)[C@H](C(=O)N(C)C)CC(=O)N1C [PP2316] | A (a compound having 10 or more and less than 20 is denoted as A) | A (a compound having 10 or more and less than 20 is denoted as A) | 8.80 | – |
| CCCO[C@@H]1C[C@H]2C(=O)NC3(CC(C)(C)C3)C(=O)N(C)[C@@H](C3CCCC3)C(=O)N(C)[C@H](C(=O)N3CCCC3)CC(=O)N(C)[C@H]3CCCc4ccc(cc4)C[C@@H](C(=O)N(C)CC(=O)N[C@@H](CCc4ccc(C(F)(F)F)c(OC)c4)C(=O)N2C1)N1CC/C=C\C[C@@H](C1=O)N(C)C(=O)CN(C)C(=O)[C@H]([C@@H](C)CC)NC3=O [PP3065] | – | – | 7.56 | NRAS /KRAS [1, 7]: A (a compound having 10 or more and less than 20 is denoted as A); HRAS /KRAS (HRAS wild-type protein; [8]): B (a compound having 3 or more and less than 10 is denoted as B) |
| CCO[C@@H]1C[C@H]2C(=O)NC3(CC(F)(F)C3)C(=O)N(C)[C@@H](C3CCCC3)C(=O)N(C)[C@H](CC)CC(=O)N(C)[C@@H](CC)C(=O)N[C@@H]([C@@H](C)CC)C(=O)N(C)CC(=O)N(C)[C@H]3C/C=C\CCN(C3=O)[C@@H](Cc3ccc(C(F)(F)F)cc3)C(=O)N(C)CC(=O)N[C@@H](CCc3cc(F)c(C(F)(F)F)c(F)c3)C(=O)N2C1 [PP1627] | – | – | 7.64 | NRAS /KRAS [1, 5]: A (a compound having 10 or more and less than 20 is denoted as A); HRAS /KRAS (HRAS wild-type protein; [6]): A (a compound having 10 or more and less than 20 is denoted as A) |
| CCCN1C(=O)[C@@H]2CCN2C(=O)CN(C)C(=O)[C@H]([C@@H](C)CC)NC(=O)[C@H](CC(C)C)N(C)C(=O)C[C@@H](C(=O)N2CCOCC2)N(C)C(=O)[C@H](C2CCCC2)N(C)C(=O)C2(CCCC2)NC(=O)[C@@H]2CC(F)(F)CN2C(=O)[C@H](CCc2ccc(C(F)(F)F)c(Cl)c2)NC(=O)CN(C)C(=O)[C@@H]1Cc1ccc(C(F)(F)F)cc1 [PP0408] ([NMeL]I[Sar][Aze][NPrPhe(4-CF3)][Sar][hPhe(3-Cl-4-CF3)][Pro(4,4-F2)][Ac5c][NMeGly(cPent)][NMeD]-Morpholide; lactam N-11) | C (A compound having a KD ratio of 0.1 or more and less than 3 is denoted as C) | B (a compound having 3 or more and less than 10 is denoted as B) | 8.24 | – |
| CCO[C@@H]1C[C@H]2C(=O)NC3(CCC3)C(=O)N(C)[C@@H](C3CCCC3)C(=O)N(CCC3CCCC3)[C@H](C(=O)N(C)C)CC(=O)N(C)[C@@H](CC)C(=O)N[C@@H]([C@@H](C)CC)C(=O)N(C)CC(=O)N(C)[C@H]3C/C=C\CCN(C3=O)[C@@H](Cc3ccc(C(F)(F)F)cc3)C(=O)N(C)CC(=O)N[C@@H](CCc3cc(F)c(C(F)(F)F)c(F)c3)C(=O)N2C1 [PP0982] | – | – | 6.43 | NRAS /KRAS [1, 7]: AA (a compound having 20 or more is denoted as AA); HRAS /KRAS (HRAS wild-type protein; [8]): A (a compound having 10 or more and less than 20 is denoted as A) |
| CCCN1C(=O)CN(C)C(=O)CN(C)C(=O)[C@H]([C@@H](C)CC)NC(=O)[C@H](CC(C)C)N(C)C(=O)C[C@@H](C(=O)N2CCOCC2)N(C)C(=O)[C@H]([C@@H](C)CC)N(C)C(=O)C2(CCCC2)NC(=O)[C@@H]2CCCN2C(=O)[C@H](CCc2ccc(C(F)(F)F)c(Cl)c2)NC(=O)CN(C)C(=O)[C@@H]1Cc1ccc(C(F)(F)F)cc1 [PP1926] ([NMeL]I[Sar][Sar][NPrPhe(4-CF3)][Sar][hPhe(3-Cl-4-CF3)]P[Ac5c][NMeI][NMeD]-Morpholide; lactam N-11) | B (a compound having 3 or more and less than 10 is denoted as B) | B (a compound having 3 or more and less than 10 is denoted as B) | 7.76 | – |
| CCO[C@@H]1C[C@H]2C(=O)NC3(CC(C)(C)C3)C(=O)N(C)[C@@H](C3CCCC3)C(=O)N(C)[C@H](C(=O)N(C)C)CC(=O)N(C)[C@@H](CC3CC3)C(=O)N[C@@H]([C@@H](C)CC)C(=O)N(C)CC(=O)N(C)[C@H]3C/C=C\CCN(C3=O)[C@@H](Cc3ccc(C(F)(F)F)cc3)C(=O)N(C)CC(=O)N[C@@H](CCc3ccc(C(F)(F)F)c(OC)c3)C(=O)N2C1 [PP1563] | – | – | 8.59 | NRAS /KRAS [1, 5]: A (a compound having 10 or more and less than 20 is denoted as A); HRAS /KRAS (HRAS wild-type protein; [6]): A (a compound having 10 or more and less than 20 is denoted as A) |
| CCC[C@H]1C(=O)N[C@@H]([C@@H](C)CC)C(=O)N(C)CC(=O)N(C)[C@H]2C/C=C\CCN(C2=O)[C@@H](Cc2ccc(C(F)(F)F)cc2)C(=O)N(C)CC(=O)N[C@@H](CCc2ccc(C(F)(F)F)c(OC)c2)C(=O)N2C[C@H](OCC)C[C@H]2C(=O)N(C)C2(CCC2)C(=O)N(C)[C@@H](C2CCCC2)C(=O)N(C)[C@H](C(=O)N2CCCC2)CC(=O)N1C [PP3105] | – | – | 8.60 | NRAS /KRAS [1, 7]: AA (a compound having 20 or more is denoted as AA); HRAS /KRAS (HRAS wild-type protein; [8]): A (a compound having 10 or more and less than 20 is denoted as A) |
| CCO[C@@H]1C[C@H]2C(=O)NC3(CCC3)C(=O)N(C)[C@@H](C3CCCC3)C(=O)N(C)[C@H](C(=O)N(C)CCOC)CC(=O)N(C)[C@@H](CC(C)C)C(=O)N[C@@H]([C@@H](C)CC)C(=O)N(C)CC(=O)N(C)[C@H]3C/C=C\CCN(C3=O)[C@@H](Cc3ccc(C(F)(F)F)cc3)C(=O)N(C)CC(=O)N[C@@H](CCc3cc(F)c(C(F)(F)F)c(F)c3)C(=O)N2C1 [PP1317] | – | – | 8.12 | NRAS /KRAS ([1]; ratio of KD with respect to GDP-bound NRAS wild-type protein to KD with respect to KRAS): A (a compound having 10 or more and less than 20 is denoted as A); HRAS /KRAS (HRAS wild-type protein; ratio of KD with respect to HRAS wild-type protein to KD with respect to KRAS): B (a compound having 3 or more and less than 10 is denoted as B) |

Reference: patent EP4603105A1, “PHARMACEUTICAL COMPOSITION CONTAINING CYCLIC COMPOUND HAVING SELECTIVE KRAS INHIBITORY EFFECT AGAINST HRAS AND NRAS” (CHUGAI SEIYAKU KABUSHIKI KAISHA, priority 2022, dated 2024)
